Experimental data as given in US4843087A (priority 1986, dated 1989).
In brackets after ≈: the same amount, converted by molar mass.

System: human rhinovirus (HRV) serotypes
Assay: microbe, parasite or virus in culture
Type: cell-based
Settings: for MIC50: read-out: Rhinovirus MIC50; for IC (MIC80 of serotype panel): read-out: Rhinovirus MIC80

Row | SMILES | MIC50 [µg/mL] | IC (MIC80 of serotype panel) [µg/mL]
1 | Cc1cc(CCCCCCCOc2ccc(C3=NC(C)CO3)cc2Cl)on1 (stereo not drawn) [17(b), 5-{7-[2-Chloro-4-(4,5-dihydro-4-methyl-2-oxazolyl)phenoxy]heptyl}-3-methylisoxazole] | 0.89 (≈ 2.28 µM) | 26
2 | Cc1cc(CCCCCCCCOc2ccc(C3=NCCO3)cc2)on1 [18(b), 5-{8-[4-(4,5-Dihydro-2-oxazolyl)phenoxy]octyl}-3-methylisoxazole] | 1.75 (≈ 4.91 µM) | 2.1
3 | Cc1cc(CCCCCCCOc2cccc(C3=NCCO3)c2)on1 [26(b), 5-{7-[3-(4,5-Dihydro-2-oxazolyl)phenoxy]heptyl}-3-methylisoxazole] | 0.94 (≈ 2.75 µM) | 1.12
4 | Cc1cc(CCCCCCCCOc2ccc(C3=NC(C)CO3)cc2Cl)on1 (stereo not drawn) [27(b)] | 0.405 (≈ 1 µM) | 25.8
5 | Cc1cc(CCCCCOc2c(C)cc(-c3nc(C)c(C)o3)cc2C)on1 [118(c), 5-{5-[4-(4,5-Dimethyl-2-oxazolyl)-2,6-dimethylphenoxy]pentyl}-3-methylisoxazole] | 0.37 (≈ 1 µM) | 0.84
6 | OCCOCOCc1cc(CCCCCOc2c(Cl)cc(C3=NCCO3)cc2Cl)on1 [149(b), 5-{5-[2,6-Dichloro-4-(4,5-dihydro-2-oxazolyl)phenoxy]pentyl}-3-isoxazolylmethoxymethoxyethanol] | 0.13 (≈ 0.275 µM) | 1.1
7 | Cc1cc(CCCCCOc2c(Cl)cc(C3=NCCO3)cc2Cl)sn1 [150(b), 2-{3,5-Dichloro-4-[(5-(3-methyl-5-isothiazolyl)pentyl)oxy]phenyl}-4,5-dihydro-oxazole] | 0.12 (≈ 0.3 µM) | 0.35
8 | Cc1cc(CCCCCOc2c(Cl)cc(C3=NCCO3)cc2C(F)(F)F)on1 [155(c), 5-{5-[2-Chloro-4-(4,5-dihydro-2-oxazolyl)-6-(trifluoromethyl)phenoxy]pentyl}-3-methylisoxazole] | 0.11 (≈ 0.264 µM) | 0.56
9 | Cc1cc(CCCCCOc2c(Cl)cc(C(=O)NCCCCl)cc2Cl)on1 [156(a), 3,5-Dichloro-N-(3-chloropropyl)-4-{[5-(3-methyl-5-isoxazolyl)pentyl]oxy}benzamide] | 0.795 (≈ 1.83 µM) | 99
10 | Cc1cc(CCCCCOc2c(Cl)cc(C3=NCCCO3)cc2Cl)on1 [156(b)] | 0.705 (≈ 1.77 µM) | 28.6
11 | Cc1cc(CCCCCCCOc2ccc(C3=N[C@@H](C)CO3)cc2)on1 [Example 4, (-)-5-{7-[4-(4,5-Dihydro-4-methyl-2oxazolyl)phenoxy]heptyl}-3-methylisoxazole] | 0.025 (≈ 0.0701 µM) | 0.03
12 | Cc1cc(CCCCCCCOc2ccc(C3=NC(C)(C)CO3)cc2)on1 [Example 5, 5-{7-[4-(4,5-Dihydro-4,4-dimethyl-2oxazolyl)phenoxy]heptyl}-3-methylisoxazole] | 1.3 (≈ 3.51 µM) | 99
13 | Cc1cc(CCCCCCCOc2ccc(C3=NCC(CO)O3)cc2)on1 (stereo not drawn) [Example 23, 5-{7-[4-(4,5-Dihydro-5-hydroxymethyl-2-oxazolyl)phenoxy]heptyl}-3-methylisoxazole] | 1.55 (≈ 4.16 µM) | 2.9
14 | Cc1cc(CCCCCCCOc2ccc(C3=NCC(CCl)O3)cc2)on1 (stereo not drawn) [Example 39, 5-{7-[4-(5-Choromethyl-4,5-dihydro-2-oxazolyl)phenoxy]heptyl}-3-methylisoxazole] | 0.87 (≈ 2.23 µM) | 99
15 | COCC1CN=C(c2ccc(OCCCCCCCc3cc(C)no3)cc2)O1 (stereo not drawn) [Example 40, 5-{7-[4-(4,5-Dihydro-5-methoxymethyl-2-oxazolyl)phenoxy]heptyl}-3-methylisoxazole] | 0.535 (≈ 1.38 µM) | 99
16 | Cc1cc(CCC=CCOc2ccc(C3=NCCO3)cc2)on1 [Example 55, 5-{5-[4-(4,5-Dihydro-2-oxazolyl)phenoxy]-3-pentenyl}-3-methylisoxazole] | 49.6 (≈ 159 µM) | 99
17 | Cc1cc(CCCCCOc2ccc(C3=NC(C)(C)CO3)cc2Cl)on1 [Example 57, 5-{5-[2-Chloro-4-(4,5-dihydro-4,4-dimethyl-2-oxazolyl)phenoxy]pentyl}-3-methylisoxazole] | 50.1 (≈ 133 µM) | 99
18 | Cc1cc(CCCCOc2ccc(C3=NC(C)CO3)cc2Cl)on1 (stereo not drawn) [Example 65, 5-{4-[2-Chloro-4-(4,5-dihydro-4-methyl-2-oxazolyl)phenoxy]butyl}-3-methylisoxazole] | 0.26 (≈ 0.745 µM) | 0.45
19 | Cc1cc(CCCCOc2ccc(C3=NC(C)(C)CO3)cc2Cl)on1 [Example 66, 5-{4-[2-Chloro-4-(4,5-dihydro-4,4-dimethyl-2-oxazolyl)phenoxy]butyl}-3-methylisoxazole] | 0.78 (≈ 2.15 µM) | 99
20 | Cc1cc(CCCCCOc2ccc(C3=NCCO3)c(Cl)c2Cl)on1 [Example 72, 5-{5-[2,3-Dichloro-4-(4,5-dihydro-2-oxazolyl)phenoxy]pentyl}-3-methylisoxazole] | 0.27 (≈ 0.704 µM) | 0.69

Row | SMILES | MIC50 [µg/mL] | IC (MIC80 of serotype panel) [µg/mL]
21 | Cc1cc(CCCCCOc2ccc(C3=NCCO3)cc2C(C)(C)C)on1 [Example 76, 5-{5-[4-(4,5-Dihydro-2-oxazolyl)-2-(1,1-dimethylethyl)phenoxy]pentyl}-3-methylisoxazole] | 50.1 (≈ 135 µM) | 99
22 | Cc1cc(CCCCCOc2ccc(-c3nc(C)c(C)o3)cc2C(F)(F)F)on1 [Example 91, 5-{5-[4-(4,5-Dimethyl-2-oxazolyl)-2-trifluoromethylphenoxy]pentyl}-3-methylisoxazole] | 0.75 (≈ 1.84 µM) | 1.4
23 | Cc1cc(CCCC(C)Oc2c(Cl)cc(C3=NCCO3)cc2Cl)on1 (stereo not drawn) [Example 110, 5-{4-[2,6-Dichloro-4-(4,5-dihydro-2-oxazolyl)phenoxy]pentyl}-3-methylisoxazole] | 0.24 (≈ 0.626 µM) | 0.64
24 | Cc1cc(CC/C=C\COc2c(Cl)cc(C3=NCCO3)cc2Cl)on1 [Example 112, 5-{5-[2,6-Dichloro-4-(4,5-dihydro-2-oxazolyl)phenoxy]-3-pentenyl}-3-methylisoxazole (Z-isomer)] | 0.079 (≈ 0.207 µM) | 0.74
25 | Cc1cc(CCCCOc2c(Cl)cc(-c3nc(C)c(C)o3)cc2Cl)on1 [Example 120, 5-{4-[2,6-Dichloro-4-(4,5-dimethyl-2-oxazolyl)phenoxy]butyl}-3-methylisoxazole] | 0.16 (≈ 0.405 µM) | 0.67
26 | Cc1cc(CCCCCOc2ccc(C3=N[C@@H](C)CO3)cc2)on1 [Example 121, (S)-5-{5-[4-(4,5-Dihydro-4-methyl-2-oxazolyl)phenoxy]pentyl}-3-methylisoxazole] | 0.09 (≈ 0.274 µM) | 26
27 | Cc1cc(CCCCCCCOc2ccc(C3=NC[C@H](C)O3)cc2)on1 [Example 122, (S)-5-{7-[4-(4,5-Dihydro-5-methyl-2-oxazolyl)phenoxy]heptyl}-3-methylisoxazole] | 0.24 (≈ 0.673 µM) | 50.3
28 | CC[C@H]1COC(c2ccc(OCCCCCCCc3cc(C)no3)cc2)=N1 [Example 124, (S)-5-{7-[4-(4-Ethyl-4,5-dihydro-2oxazolyl)phenoxy]heptyl}-3-methylisoxazole] | 0.36 (≈ 0.972 µM) | 2.4
29 | CC[C@@H]1COC(c2ccc(OCCCCCCCc3cc(C)no3)cc2)=N1 [Example 125, (R)-5-{7-[4-(4-Ethyl-4,5-dihydro-2-oxazolyl)phenoxy]heptyl}-3-methylisoxazole] | 0.69 (≈ 1.86 µM) | 2.3
30 | Cc1cc(CCCCCCCOc2ccc(C3=N[C@@H](C(C)C)CO3)cc2)on1 [Example 126, (S)-5-{7-[4-(4,5-Dihydro-4-isopropyl-2-oxazolyl)phenoxy]heptyl}-3-methylisoxazole] | 1.23 (≈ 3.2 µM) | 26.2
31 | Cc1cc(CCCCCCCOc2ccc(C3=N[C@H](C(C)C)CO3)cc2)on1 [Example 127, (R)-5-{7-[4-(4,5-Dihydro-4-isopropyl-2-oxazolyl)phenoxy]heptyl}-3-methylisoxazole] | 0.76 (≈ 1.98 µM) | 1.4
32 | CCC[C@H]1COC(c2ccc(OCCCCCCCc3cc(C)no3)cc2)=N1 [Example 128, (S)-5-{7-[4-(4,5-Dihydro-4-propyl-2-oxazolyl)phenoxy]heptyl}-3-methylisoxazole] | 0.245 (≈ 0.637 µM) | 27.1
33 | CCC[C@@H]1COC(c2ccc(OCCCCCCCc3cc(C)no3)cc2)=N1 [Example 129, (R)-5-{7-[4-(4,5-Dihydro-4-propyl-2-oxazolyl)phenoxy]heptyl}-3-methylisoxazole] | 1.33 (≈ 3.46 µM) | 2.6
34 | CCCC[C@H]1COC(c2ccc(OCCCCCCCc3cc(C)no3)cc2)=N1 [Example 130, (S)-5-{7-[4-(4-Butyl-4,5-dihydro-2-oxazolyl)phenoxy]heptyl}-3-methylisoxazole] | 1.08 (≈ 2.71 µM) | 2.07
35 | CCCC[C@@H]1COC(c2ccc(OCCCCCCCc3cc(C)no3)cc2)=N1 [Example 131, (R)-5-{7-[4-(4-Butyl-4,5-dihydro-2-oxazolyl)phenoxy]heptyl}-3-methylisoxazole] | 1.44 (≈ 3.61 µM) | 2.38
36 | CCCCCCc1cc(CCOc2ccc(C3=N[C@@H](C)CO3)cc2)on1 [Example 132, (S)-5-{2-[4-(4,5-Dihydro-4-methyl-2-oxazolyl)phenoxy]ethyl}-3-hexylisoxazole] | 1.02 (≈ 2.88 µM) | 1.9
37 | Cc1cc(CCCCCOc2c(Cl)cc(C3=NC(CO)CO3)cc2Cl)on1 (stereo not drawn) [Example 138, 5-{5-[2,6-Dichloro-4-(4,5-dihydro-4-hydroxymethyl-2-oxazolyl)phenoxy]pentyl}-3-methylisoxazole] | 0.2 (≈ 0.484 µM) | 1.2
38 | C=CCC1COC(c2ccc(OCCCCCCCc3cc(C)no3)cc2)=N1 (stereo not drawn) [Example 139, 5-{7-[4-(4,5-Dihydro-4-(2-propenyl)-2-oxazolyl)phenoxy]heptyl}-3-methylisoxazole] | 0.795 (≈ 2.08 µM) | 25.9
39 | Cc1cc(CCCCCCCOc2ccc(C3=NC(CCl)CO3)cc2)on1 (stereo not drawn) [Example 140, 5-{7-[4-(4-Chloromethyl-4,5-dihydro-2-oxazolyl)phenoxy]heptyl}-3-methylisoxazole] | 0.49 (≈ 1.25 µM) | 26.9
